In patent US8337858B2, “Extracts of Aphanizomenon Flos Aquae and nutritional, cosmetic and pharmaceutical compositions containing the same” (Nutratec S.R.L., priority 2006, dated 2012):
Like-named read-outs stand apart in the source and are kept apart here.

Columns and labels:
[1] = ORAC (Oxygen Radical Absorbance Capacity) assay with fluorescein and AAPH; format: biochemical; conditions: for ORACFL value expressed per mg: recalculated from Ou et al., 2001; for ORAC value: fluorescein, AAPH 4 mM, 37° C.
Procedure: The ORAC assay was carried out at 37° C. on a FLUOstar OPTIMA spectrofluorimeter (BGM LABTECH, Germany) at 485 nm excitation and 520 nm emission, using the method of Ou et al. (32) with minor modifications. Briefly, in the final assay mixture, fluorescein (FL) (0.05 μM) was used as a target of free radical attack, with AAPH (4 mM) as a peroxyl radical generator. Trolox (1 μM) was used as a control standard and phosphate buffer as a blank. The concentrations of tested compounds in the assay mixture ranged from 0.025 μM to 2 μM. All substances were dissolved and diluted with 75 mM Na-phosphate buffer pH 7; PCB solution was made by dissolving the compound first in ethanol and then bringing the solution to the desired concentration with the buffer. All samples were run in triplicate. Fluorescence was recorded every 5 min after AAPH was added. Final results (ORAC values) were calculated using the differences in the areas under the fluorescence decay curves (AUC) between the sample and blank and expressed as Trolox equivalents: ORAC value=[(AUCsample−AUCblank)/(AUCtrolox−AUCblank)]×(molaritytrolox/molaritysample)
To evaluate the antioxidant capacity of the extract in terms of the ORAC test, we used the same methodology we used to test the ORAC for PC and PCB. In order to test both the water soluble and the lipid soluble components of the AFA extract, we first prepared the two water and lipid soluble extracts, as follows.
Preparation of the Water Soluble Extract • Weigh 10 mg of extract in 1 ml of distilled water and homogenize for 1 min through a mechanical potter. • Centrifuge at 2500 rpm for 10′ at 4° C. to remove cellular debris. • Collect the supernatant and resuspend the pellet in 1 ml of water. • Homogenize for 1 min with a mechanical potter. • Centrifuge at 2500 rpm for 10′ at 4° C. • Collect the supernatant and mix with that obtained from the first water extraction. • Preserve the water extract (with a blue color for the presence of the PC) at +4 o-20° C.
Preparation of the Lipid Soluble Extract • Resuspend the pellet obtained from the previous extraction in 1 ml of acetone. • Homogenize for 1 min with a mechanical potter. • Centrifuge at 2500 rpm for 10′ at 4° C. • Collect the supernatant and resuspend the pellet in 1 ml of acetone. • Homogenize for 1 min with a mechanical potter. • Centrifuge at 2500 rpm for 10′ at 4° C. • Collect the supernatant and mix with that obtained from the first extraction with acetone. • Preserve the lipophilic extract (with an orange color for the presence of carotenes) at +4°-20° C.

[2] = Ou et al., 2001; cited from earlier work
[3] = tested on: Jurkat cells; assay: Intracellular dichlorofluorescein fluorescence in Jurkat cells oxidized with H2O2; format: cell-based
Procedure: Starting from the Basic extract, and following the methodology already described, we have purified the AFA-phycocyanin, with its C-PC/PEC complex, to test its antioxidant properties on live cultured cells. The Jurkat cells (immortalized line of leucemia T-lymphocytes) have been subjected to oxidative stress with 500 μM H2O2, together or without increasing dosages of AFA-PC and PCB. The fluorescence emitted by the intracellular probe (dichlorofluorescein), following oxydation from H2O2, has been recorded after 30 minutes of incubation with H2O2 through a fluorimeter (exc. at 492 nm and emission at 520 nm). By incubating cells with both AFA-PC (range 0.1-10 μM) and 500 μM H2O2 for 30 minutes we observe a dose-dependent protective effect with a reduction of intracellular fluorescence induced by H2O2, with an IC50 of 0.5 μM, and a 100% inhibition (non-oxidized cells) at 10 μM (FIG. 13).
The antioxidant properties of the whole PC, composed of C-PC and PEC, resides in its chromophores, which are phycocyanibilin (PCB) for C-PC and both PCB and PVB (phycoviolobilin) for PEC. We have purified the C-PC chromophore PCB, to test it on cultured cells oxidized with H2O2 (range FCB 0.1-40 μM). Also in this case we observe a dose-dependent antioxidant effect with an IC50 of 0.5 μM, and a 100% inhibition (non-oxidized cells) at 40 μM (FIG. 13).
Most importantly, to evaluate the cellular absorption of PC and PCB, both compounds have been pre-incubated for 2 hrs. with the cells; afterwards, the medium has been washed, to exclude any unabsorbed PC and PCB, and the cells have been oxidized for 30 min. with H2O2. As shown by the FIG. 14, there is a dose-dependent inhibition of intracellular fluorescence. This means that the cell is able to retain both antioxidant molecules, either in the membrane or in the cytoplasm.

[4] = molecular target: T1, COX-2 (Homo sapiens, UniProt P35354); assay: COX Inhibitor Screening Assay (Cayman), COX-2; format: biochemical; conditions: 0-15 μM
T1 construct: purchased Cayman
T1 sequence (P35354 18-604): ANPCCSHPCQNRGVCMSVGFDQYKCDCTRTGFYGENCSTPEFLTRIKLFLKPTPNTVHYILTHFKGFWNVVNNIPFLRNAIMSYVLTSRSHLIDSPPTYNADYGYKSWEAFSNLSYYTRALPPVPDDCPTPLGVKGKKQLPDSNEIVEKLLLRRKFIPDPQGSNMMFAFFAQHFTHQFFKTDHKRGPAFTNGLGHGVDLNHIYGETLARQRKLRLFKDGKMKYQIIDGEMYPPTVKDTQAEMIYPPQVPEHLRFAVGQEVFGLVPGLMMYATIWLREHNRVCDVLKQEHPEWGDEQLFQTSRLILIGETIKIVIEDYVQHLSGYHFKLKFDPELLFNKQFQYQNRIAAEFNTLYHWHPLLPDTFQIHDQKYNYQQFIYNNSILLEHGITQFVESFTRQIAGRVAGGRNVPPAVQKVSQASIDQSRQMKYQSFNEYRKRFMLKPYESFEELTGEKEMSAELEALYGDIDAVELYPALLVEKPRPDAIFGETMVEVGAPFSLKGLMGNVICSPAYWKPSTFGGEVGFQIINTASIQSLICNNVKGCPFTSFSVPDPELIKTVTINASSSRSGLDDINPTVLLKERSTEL
Procedure: (§1) Given that the phycocyanins from Klamath AFA algae are different from the ones from Spirulina, ands that no test has ever been done on their effect on the COX enzymes, we decided to perform such test through the immunoenzymatic kit “COX Inhibitor Screening Assay” of the Cayman company. We thus evaluated the COX-1 and COX-2 inhibition by the AFA extract (both the water soluble part in water, and the lipid soluble in acetone; range 25-200 μg/ml); by the pure PC (0.03-3 μM) and PCB (0-15 μM). The results are shown in FIG. 29, presenting the graphic of the percent activity of COX-1 and COX-2 at the different concentrations of AFA extract, PC and PCB.

[5] = molecular target: T2, COX-1 (Ovis aries, UniProt P05979); assay: COX Inhibitor Screening Assay (Cayman), COX-1; format: biochemical
T2 construct: purchased Cayman
T2 sequence (P05979 25-600): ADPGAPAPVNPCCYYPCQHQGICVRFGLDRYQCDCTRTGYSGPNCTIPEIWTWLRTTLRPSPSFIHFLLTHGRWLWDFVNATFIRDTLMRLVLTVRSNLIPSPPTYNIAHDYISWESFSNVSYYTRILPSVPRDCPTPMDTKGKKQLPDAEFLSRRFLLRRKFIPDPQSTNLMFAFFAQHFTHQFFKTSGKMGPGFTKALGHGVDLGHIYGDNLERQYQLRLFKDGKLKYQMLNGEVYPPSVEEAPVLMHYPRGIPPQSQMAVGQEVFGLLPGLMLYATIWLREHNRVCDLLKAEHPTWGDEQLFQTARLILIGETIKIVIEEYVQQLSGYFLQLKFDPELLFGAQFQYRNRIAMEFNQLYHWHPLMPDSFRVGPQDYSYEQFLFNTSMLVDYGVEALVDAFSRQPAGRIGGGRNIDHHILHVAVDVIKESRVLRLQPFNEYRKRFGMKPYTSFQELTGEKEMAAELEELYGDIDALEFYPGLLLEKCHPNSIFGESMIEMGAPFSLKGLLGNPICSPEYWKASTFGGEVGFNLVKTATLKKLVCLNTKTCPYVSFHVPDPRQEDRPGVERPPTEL
Procedure: as §1

[6] = tested on: human plasma oxidized by CuCl2; assay: MDA (TBA test) formation in human plasma oxidized by CuCl2; conditions: read-out: IC50, metal-induced oxidation of plasma lipids (MDA); plasma incubated 2 hours at 37° C. with CuCl2 (FIG. 9A panel B)

Molecule: Oc1cc(O)c2c(c1)O[C@H](c1ccc(O)c(O)c1)[C@@H](O)C2 [(+)-catechin]
- ORACFL value expressed per mg [1]: 23.3 μmol Trolox/mg compound
- ORACFL value [2]: 6.76 μmol Trolox/μmol compound

Molecule: O=C1O[C@H]([C@@H](O)CO)C(O)=C1O [AA]
- ORAC value [1]: 0.75 Trolox equiv.

Molecule: N[C@@H](CCC(=O)N[C@@H](CS)C(=O)NCC(=O)O)C(=O)O [GSH, reduced glutathione]
- ORAC value [1]: 0.57 Trolox equiv.

Molecule: O=c1c(O)c(-c2ccc(O)c(O)c2)oc2cc(O)cc(O)c12 [quercetin]
- ORACFL value expressed per mg [1]: 24.0 μmol Trolox/mg compound
- ORACFL value [2]: 7.28 μmol Trolox/μmol compound

Molecule: phycocyanobilin [PCB]
- ORAC value expressed per mg [1]: 37.0 μmol Trolox/mg
- ORAC value [1]: 22.18 Trolox equiv.
- inhibition of intracellular fluorescence ([3]; 40 μM, together with H2O2): 100%
- oxidative effect (increase of intracellular fluorescence) ([3]; incubated 30 minutes with cells without H2O2): do not have any oxidative effect
- oxidative effect (increase of intracellular fluorescence) ([3]; incubated 2 hrs. with cells): did not produce any oxidative effect
- IC50 ([3]; incubated together with 500 μM H2O2 for 30 minutes (FIG. 13), read-out: IC50, reduction of intracellular fluorescence induced by H2O2): 500 nM
- protection, absorption test ([3]; pre-incubated 2 hrs., medium washed, then H2O2 30 min (FIG. 14)): more than 90%
- IC50 ([3]; pre-incubated 2 hrs., medium washed, then H2O2 30 min (FIG. 14), read-out: IC50, inhibition of intracellular fluorescence, absorption test): 1900 nM
- COX-2 inhibition [4]: scarcely inhibitor of the COX-2
- effect on COX-1 activity [5]: increases the COX-1 activity
- IC50 [6]: ~160 nM
